Test results taken from PubChem BioAssay AID624167 (Sanford-Burnham Center for Chemical Genomics, 2012).
The source made the active and inactive calls.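 How the source made its calls: active means mean IC50 for reducing PEG3 promoter reporter signal at or below a set limit, with IC50 above the limit in both counter screens; inactive means the rest, including counter screen hits.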

Columns and labels:
PEG-3 [1] = molecular target: PEG-3 (UniProt Q6IN02); assay: Peg3 promoter luciferase inhibitors, potency, dose response, cell-based, HeLa, CREF/GAPDH counter-screen panel (AID 624167); details: HeLa PEG-Prom luciferase reporter, overnight, CREF/GAPDH counter-screens, mean of runs
PEG-3 [2] = assay: as above; details: HeLa PEG-Prom luciferase reporter, overnight, CREF/GAPDH counter-screens
[3] = run 1, dose range 1, individual replicate IC50 per panel
[4] = run 2, dose range 1, individual replicate IC50 per panel

PEG-3 (UniProt Q6IN02), sequence (Q6IN02 whole entry, looked up): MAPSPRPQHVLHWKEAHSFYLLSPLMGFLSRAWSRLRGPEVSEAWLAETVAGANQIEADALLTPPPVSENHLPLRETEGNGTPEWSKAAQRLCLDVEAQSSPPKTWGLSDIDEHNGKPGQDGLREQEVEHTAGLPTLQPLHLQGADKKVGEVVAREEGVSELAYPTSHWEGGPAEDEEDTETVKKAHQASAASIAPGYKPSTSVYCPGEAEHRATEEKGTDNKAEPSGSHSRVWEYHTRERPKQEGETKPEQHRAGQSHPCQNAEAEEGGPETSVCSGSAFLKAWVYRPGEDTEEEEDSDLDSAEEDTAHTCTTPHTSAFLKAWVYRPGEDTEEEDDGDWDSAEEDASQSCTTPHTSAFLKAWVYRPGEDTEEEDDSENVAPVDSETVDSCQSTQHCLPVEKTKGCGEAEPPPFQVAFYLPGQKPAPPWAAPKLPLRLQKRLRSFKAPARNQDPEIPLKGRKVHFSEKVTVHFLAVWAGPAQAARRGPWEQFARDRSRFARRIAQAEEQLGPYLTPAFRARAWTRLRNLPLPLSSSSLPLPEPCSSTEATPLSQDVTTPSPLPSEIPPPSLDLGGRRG

| SMILES | IC50 (PEG-3 [1]) | IC50 (PEG-3 [2]; [3]) [µM] | IC50 (PEG-3 [2]; [4]) [µM] |
| --- | --- | --- | --- |
| CC(=O)Nc1cccc(-c2ccnc3c2CC(C)(C(=O)Nc2cccc(C(F)(F)F)c2)O3)c1 (centres undefined) | inactive | 5.21 | > 100 |
| O=C(Nc1ccccc1)c1nc[nH]c1C(=O)NCCCCNC(=O)c1[nH]cnc1C(=O)Nc1ccccc1 | 11.3 µM | 17.7 | 4.92 |
| Cc1ccc(F)cc1-c1cc2nc(NCCCN(C)C)n(C)c(=O)c2s1 | inactive | 30.9 | 59.5 |
| COc1cc(N=Nc2c(O)c3ccccc3[nH]c2=O)c(OC)cc1N=Nc1ccccc1 | > 100 µM (inactive) | > 100 | > 100 |
| CCN1CCN(Cc2ccc(NC(=O)c3cc(NC(=O)c4ccno4)cc(OC)c3)cc2C(F)(F)F)CC1 | inactive | 40.6 | 45.3 |
| COc1cccc2c1C(=N)c1c(O)c3c(c(O)c1C2=O)CC(O)(C(C)=O)CC3OC1CC(N)C(O)C(C)O1 (centres undefined) | 11.6 µM | 15.7 | 7.56 |
| CCCCCCCCCCCCCCC(O)C[N+](C)(CCO)CCO (centres undefined) | 14.3 µM | 17.7 | 11 |
| Cc1ccc(C(=O)N2CCN(c3ccc([N+](=O)[O-])c(NCc4cccnc4)c3)CC2)cc1 | 16.7 µM | 10.6 | 22.7 |
| CN(C)CCCNc1ncnc2oc(-c3ccccc3)c(-c3ccccc3)c12 | 15.7 µM | 16.6 | 14.8 |
| O=c1cc2oc3cc(O)c(O)cc3c(-c3ccccc3[N+](=O)[O-])c-2cc1O | 19 µM | 19 | 19.1 |
| Cc1ccc(-n2cc(-c3ccccc3)c3c(N4CCOCC4)ncnc32)cc1 | 18.2 µM | 10.8 | 25.7 |
| Cc1ccc(-c2nc(C(Cl)Cl)c3ccccc3n2)cc1 | inactive | > 100 | 9.67 |
| N#Cc1cc2c(nc1SC1CC(=O)N(c3ccccc3)C1=O)CCC2 (centres undefined) | inactive | > 100 | 1.02 |
| COc1ccc(-n2cc(CNC3CCN(C)CC3)c(-c3cccc(F)c3)n2)cc1 | inactive | 26 | 15.3 |
| COc1ccccc1CCNC(=O)C1CCN(c2nnc(C)c3c(C)n(-c4ccc(C)cc4)nc23)CC1 | inactive | 19.4 | 24.1 |
| COCC(C)n1c(C)cc(C(=O)COC(=O)c2cccn2C)c1C (centres undefined) | inactive | 32.8 | > 100 |
| CN(C)CCCN(C(=O)c1ccc(S(=O)(=O)N(C)Cc2ccccc2)cc1)c1nc2cc3c(cc2s1)OCO3 | 16.4 µM | 19.3 | 13.6 |
| COc1ccc(CCNC(=O)c2cc3c(=O)n4ccccc4nc3n(C3CCCCC3)c2=N)cc1 | > 100 µM (inactive) | > 100 | > 100 |
| CCOC(=O)c1cccc(Nc2nc(-c3cccnc3)nc3ccccc23)c1 | 11.8 µM | 12.1 | 11.4 |
| CC(=O)c1c(NCCc2ccccc2)nc(=S)n(-c2ccccc2)c1C | 13.8 µM | 17.2 | 10.3 |
| NC(c1csc(Nc2nccc(C(F)(F)F)n2)n1)C1CCCCC1 (centres undefined) | 15.9 µM | 19.1 | 12.8 |
| Cc1nn(-c2ccccc2Cl)c(Cl)c1/C=N/Nc1nc2ccccc2s1 | < 0.2 µM | < 0.2 | < 0.2 |
| Cc1cc(Br)ccc1NC(=O)CN1C(=O)C2C3CC(c4ccccc4)C(C3)C2C1=O (centres undefined) | inactive | 23.9 | 41.9 |
| c1ccc(CCCNCCCn2cnc3c(OCc4ccccc4)ncnc32)cc1 | inactive | 34.7 | 19.5 |

| SMILES | IC50 (PEG-3 [1]) | IC50 (PEG-3 [2]; [3]) [µM] | IC50 (PEG-3 [2]; [4]) [µM] |
| --- | --- | --- | --- |
| COc1ccccc1C1c2ccc3ccccc3c2Oc2ncn(CCCO)c(=N)c21 (centres undefined) | 15.8 µM | 17.4 | 14.2 |
| COc1ccc(-c2cc(C(=O)N3CCN(c4ncccn4)CC3)c3ccccc3n2)c(OC)c1 | inactive | 39.3 | 98.5 |
| COC(=O)C1=C(C(=O)OC)C(C(=O)OC)C(C(=O)OC)C(C(=O)OC)(C(=O)OC)C(C(=O)OC)=C1C(=O)OC (centres undefined) | 13.8 µM | 16.9 | 10.7 |
| O=[N+]([O-])c1ccc(NC2CCN(Cc3ccccc3)CC2)c2ccncc12 | inactive | 23.9 | 21.7 |
| O=C1C(Cl)=C(Nc2ccc(O)cc2)C(=O)c2ccccc21 | 11.6 µM | 16.1 | 7.05 |
| CC(C)NC(=O)NC(=O)COC(=O)c1c2c(nc3ccccc13)CCC2 | inactive | 16.5 | 27.8 |
| O=C(C[n+]1ccc(-c2cc(C(=O)Nc3cccc(C(F)(F)F)c3)c3ccccc3n2)cc1)c1cccc([N+](=O)[O-])c1 | 18.6 µM | 23.4 | 13.8 |
| Cc1cc(C)c2ccc(N)nc2c1O | 15.3 µM | 7.69 | 22.9 |
| O=C1N[C@@H](c2ccccc2)COC(=O)[C@@H](Cc2ccc(F)cc2)CC/C=C/C[C@H]1CC(=O)N(CCO)Cc1ccccc1 | inactive | 41 | > 100 |
| CC(C)(C)c1ccc(/C=N/Nc2ccc(C(=O)O)cc2)cc1 | inactive | 36.7 | 28 |
| Cc1nc(N2CCN(c3ccccn3)CC2)c2c(C)c(C(=O)Nc3ccccc3F)sc2n1 | inactive | 9.97 | > 100 |
| CCCCCCCn1c(=N)n(CC(O)c2ccco2)c2ccccc21 (centres undefined) | inactive | 22 | 22.2 |
| COc1cccc(C2CC3C(=O)C=CC2N3Cc2ccccc2)c1 (centres undefined) | 13 µM | 11.9 | 14.1 |
| CN1CCN(c2ccc(NC(=O)N3CCc4ccccc43)cc2)CC1 | inactive | 15 | 38.8 |
| CC1CCCCN1C(=O)c1cccc(NC2=C(Cl)C(=O)N(Cc3ccccc3)C2=O)c1 (centres undefined) | inactive | 29.9 | 51.8 |
| c1ccc(CN=C(NCc2ccccc2)NCc2ccccc2)cc1 | inactive | 23.4 | 41.9 |
| Cc1ccc2[nH]c3c(c2c1)CCCC3NC(=O)CCl (centres undefined) | inactive | 23.3 | 49.8 |
| Cc1ccc(C(=O)N(CCCN(C)C)c2nc3ccc(Cl)cc3s2)cc1C | 18.4 µM | 18.9 | 18 |
| Nc1c(C(=O)Nc2cccc(C(=O)O)c2)sc2nc3c(cc12)CCCC3 | 11.2 µM | 4.36 | 18 |
| CCOC(=O)c1c(NC(C)=O)sc2c(OCC(O)CN(CC)CC)c(Br)ccc12 (centres undefined) | 13.9 µM | 20.7 | 7.1 |
| NC(=O)C1CCN(C2=C(Cl)C(=O)c3ccccc3C2=O)CC1 | 17.3 µM | 17.9 | 16.6 |
| COc1ccccc1NC(=O)c1cc(-c2cc(OC)c(OC)c(OC)c2)nc2ccccc12 | 15.2 µM | 27.3 | 3.16 |
| COc1cc2ccccc2cc1C(=O)N(CCN(C)C)c1nc2c(OC)ccc(OC)c2s1 | inactive | 30.7 | 21.2 |
| Nc1nc(CCl)nc(Nc2cccc3ccccc23)n1 | > 100 µM (inactive) | > 100 | > 100 |
